Laboratory results from BindingDB's records for doi:10.7270/Q20Z71R6 (Burnham Center For Chemical Genomics, 2010).

Target: Alkaline phosphatase, placental type (Homo sapiens, UniProt P05187)
Experiment: PLAP enzyme activators, dose response, selectivity assay for human IAP activator project, biochemical, uHTS hits, luminescence (AID 488888)

Sequence of Alkaline phosphatase, placental type (P05187 whole entry, looked up): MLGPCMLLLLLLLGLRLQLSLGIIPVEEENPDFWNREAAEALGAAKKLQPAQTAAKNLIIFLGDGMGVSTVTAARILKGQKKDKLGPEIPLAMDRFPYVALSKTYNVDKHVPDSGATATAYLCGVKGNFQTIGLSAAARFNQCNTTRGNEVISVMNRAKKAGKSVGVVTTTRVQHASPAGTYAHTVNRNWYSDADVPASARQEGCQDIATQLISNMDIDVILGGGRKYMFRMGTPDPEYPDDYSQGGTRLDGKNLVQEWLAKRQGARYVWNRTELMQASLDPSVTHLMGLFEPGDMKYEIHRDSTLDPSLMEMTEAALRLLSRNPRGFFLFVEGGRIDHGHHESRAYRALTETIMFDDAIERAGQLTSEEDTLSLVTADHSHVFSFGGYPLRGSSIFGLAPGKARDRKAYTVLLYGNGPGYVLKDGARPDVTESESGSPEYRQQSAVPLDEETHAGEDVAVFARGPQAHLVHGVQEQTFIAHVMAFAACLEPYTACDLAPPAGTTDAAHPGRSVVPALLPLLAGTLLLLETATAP

EC50 | SMILES
9.75 µM | O=Nc1[nH]c(=O)c(CC(=O)c2ccccc2)nc1NO [SMR000539633]
35.2 µM | O=c1c2ccccc2nc(N=NCc2c(O)ccc3ccccc23)n1O [SMR000145705]
62.2 µM | Cn1c(C(C#N)C(=O)c2ccc(Br)s2)nc2ccccc21 (stereo unspecified) [MLS001167394]
14.5 µM | O=C(Nn1c(O)csc1=S)C(=O)Nn1c(O)csc1=S [SMR000349781]
13.4 µM | CCc1ccc(CN=Nc2ncnc3nc[nH]c23)cc1 [MLS000419199]

The remaining lines, values behind:

SMILES | EC50
CCOC(=O)c1c(C)[nH]c(C(=O)N/N=C/C2C=C([N+](=O)[O-])C=CC2=O)c1C (stereo unspecified) [ethyl 2,4-dimethyl-5-[[[(E)-(3-nitro-6-oxocyclohexa-2,4-dien-1-ylidene)methyl]amino]carbamoyl]-1H-pyrrole-3-carboxylate] | 23.2 µM
COc1cccc(C=NNC(=O)c2[nH][nH]c(=O)c2C)c1O [N'-[(E)-(5-methoxy-6-oxidanylidene-cyclohexa-2,4-dien-1-ylidene)methyl]-4-methyl-5-oxidanylidene-1,4-dihydropyrazole-3-carbohydrazide] | 7.82 µM
Cc1c(C(=O)NN=Cc2ccc(O)cc2O)[nH][nH]c1=O | 13.2 µM
Cc1cc(Br)ccc1SCC(=O)OCC(=O)C(C#N)c1nc2ccccc2[nH]1 (stereo unspecified) [2-[(4-bromo-2-methylphenyl)thio]acetic acid [3-cyano-3-(1,3-dihydrobenzimidazol-2-ylidene)-2-oxopropyl] ester] | 25.5 µM
C=c1[nH]n(-c2nc3ccccc3[nH]2)c(=O)c1=CN(C)C [(4E)-2-(1H-benzimidazol-2-yl)-4-(dimethylaminomethylidene)-5-methyl-pyrazol-3-one] | 15.3 µM
O=C(O)[C@H]1O[C@@H](Oc2c(-c3ccc(O)c(O)c3)oc3cc(O)cc(=O)c-3c2O)[C@H](O)[C@@H](O)[C@@H]1O [quercetin glucuronide] | > 100 µM
